Laboratory results taken from patent US20260021147A1, “COMPOSITIONS AND METHODS FOR TREATING INFLAMMATORY DISEASE” (The Regents of the University of Michigan, priority 2022, published 2026).

Key:
[1] = tested on: allogeneic mice (B6D2F1 recipients of B6 donor cells); experiment: Murine GvHD model (allo-HSCT): survival and GvHD histology; assay type: in vivo; conditions: for severity of colonic GvHD: antibiotic in drinking water, colon collected day 20, vs control allogeneic mice
Experimental: In a murine model with a mucin-deficient mutate strain of BT, piperacillin/tazobactam was given at a concentration of 3.2 g/L in combination with vancomycin and metronidazole dosed 1.5 mg daily by oral gavage from days −16 to −12 relative to transplant.
D-(+)-xylose (X3877, Sigma-Aldrich) or D-(+)-glucose (G8270, Sigma-Aldrich) was dissolved in phosphate buffer pH 8.0 with meropenem or in water without meropenem and given at a concentration of 0.5% from days 13 to 28 after allo-HSCT.
Mice were transplanted as previously described (Hayase et al., 2017).
(§1) Pathology scores were quantified by a blinded pathologist. […] Sections were imaged using an Aperio AT2.

intestinal microbiota = experiment: 16S rRNA sequencing of fecal and mucosal microbiome in mice; assay type: in vivo
Experimental: Fecal samples which were collected from patients and mice and colonic mucosal samples, which were collected from mice were weighed before DNA isolation. […] The quality and quantity of the barcoded amplicons were assessed on an Agilent 4200 TapeStation system (Agilent) and Qubit Fluorometer (Thermo Fisher Scientific), and libraries were prepared after pooling at equimolar ratios. The final libraries were purified using QIAquick gel extraction kit (28706X4, Qiagen) and sequenced with a 2×250 base pair paired-end protocol on the Illumina MiSeq platform.
For differential abundance analysis, abundances of sequences belonging to taxonomical groups were included for analysis using the Mann-Whitney U test and adjusted for multiple comparisons using the method of Benjamini-Hochberg. Paired samples were analyzed using the Wilcoxon signed rank test with adjustment for multiple comparisons.

[2] = Short chain fatty acids profiling of mouse feces by IC-MS; assay type: in vivo, mice; conditions: allogeneic mice, day 20
Experimental: To determine the relative abundance of short chain fatty acids in mouse feces samples, extracts were prepared and analyzed by ultra-high resolution mass spectrometry (HRMS). Fecal pellets were homogenized with a Precellys Tissue Homogenizer. Metabolites were extracted using 1 mL ice-cold 0.1% Ammonium hydroxide in 80/20 (v/v) methanol/water. Extracts were centrifuged at 17,000 g for 5 min at 4° C., and supernatants were transferred to clean tubes, followed by evaporation to dryness under nitrogen. Dried extracts were reconstituted in deionized water, and 5 μL was injected for analysis by IC-MS. IC mobile phase A (MPA; weak) was water, and mobile phase B (MPB; strong) was water containing 100 mM KOH. A Thermo Scientific Dionex ICS-5000+ system included a Thermo IonPac AS11 column (4 μm particle size, 250×2 mm) with column compartment kept at 30° C. The autosampler tray was chilled to 4° C. The mobile phase flow rate was 360 μL/min, and the gradient elution program was: 0-5 min, 1% MPB; 5-25 min, 1-35% MPB; 25-39 min, 35-99% MPB; 39-49 min, 99% MPB; 49-50, 99-1% MPB. The total run time was 50 min. To assist the desolvation for better sensitivity, methanol was delivered by an external pump and combined with the eluent via a low dead volume mixing tee. Data were acquired using a Thermo Orbitrap Fusion Tribrid Mass Spectrometer under ESI negative ionization mode at a resolution of 240,000. […]

colonic mucus layer = experiment: Colonic mucus thickness by PAS staining; assay type: in vivo, mice; conditions: meropenem-treated allogeneic mice (FIG. 6, FIG. 12 titles)
Excerpt: as §1

[3] = tested on: BT (MDA-JAX BT001) PUL transcripts; experiment: RNA sequencing of stool: PUL expression in BT; assay type: in vivo, Bacteroides thetaiotaomicron; conditions: supplementation in meropenem-treated allogeneic mice
Experimental: Approximately 30 mg of stool was freshly collected in 700 μL of ice cold Qiazol containing 200 μL of 0.1 mm diameter Zirconia Silica beads (11079101z, BioSpec). Samples were bead beaten twice for 2 min with a 30 second interval recovery. Samples were then centrifuged at 12,000 g for 1 min and the supernatant was collected for RNA isolation using the RNeasy mini kit (74104, Qiagen). RNA was treated on column with DNase I (79254, Qiagen) to eliminate contaminating genomic DNA. RNA quantity and quality was determined using an Agilent 4200 TapeStation system (Agilent). 250 ng of total RNA from mouse stools was used to construct libraries using the Nugen Ovation Complete Prokaryotic RNA-Seq Systems (NuGen) or the Universal Prokaryotic RNA-Seq Library Preparation Kit (9367-32, Tecan) with Unique Dual Indexes (S02480-FG, Tecan), following the manufacturer's protocol. The cDNA libraries were sequenced on the Illumina MiSeq or NovaSeq 6000 system to produce either 1×300 bp single-end reads or 2×150 bp paired-end reads. […] The total reads of mouse stool samples were 950923±113406 (mean ±standard deviation) in FIG. 6A and 137623366±38865363 in FIG. 6G-H and 12G. […] Aligned mRNA expression changes were calculated using the Mann-Whitney U test in R software version 3.6.0 via RStudio version 1.2.1335. […]

[4] = tested on: mouse- and human-derived BT; experiment: Bacterial culture of BT with or without monosaccharide; assay type: cell-based, Bacteroides thetaiotaomicron; conditions: carbohydrate-poor media, in vitro
Experimental: Mouse-derived BT (MDA-JAX BT001), Enterococcus faecalis (MDA-JAX EF001) and Clostridium disporicum (MDA-JAX CD001), Clostridium saudiense (MDA-JAX CS001), and Lachnospiraceae unclassified (MDA-JAX LS001) were isolated and cultured from mouse stool samples suspended in 1 ml of chilled 20% anaerobic glycerol in a Whitley anaerobic chamber (10% H2, 5% CO2 and 85% N2). Human-derived BT (ATCC 29148) was purchased from ATCC. Bacterial number was quantified using a Nexcelom Cellometer cell counter with SYTO™ BC dye and propidium iodide. For measuring MICs against meropenem, bacteria were cultured on BYE plates including 5% sterilized rumen fluid (Fisher Scientific) with MIC test strips (Liofilchem™ MTS™ Meropenem [MRP] 0.016-256 μg/mL, Fisher Scientific). Bacterial growth experiments were performed in a bacterial liquid media, BYEM10, composed of a hybrid of BHI and M10 supplemented with yeast extract (Table 4). Bacteria were cultured up to 48 hours at a starting concentration of 1×10^6 bacteria/ml in BYEM10 broth (pH 7.2) with and without 5 mg/ml of porcine gastric mucin (M1778, Sigma-Aldrich) with or without 0.5 mg/ml of D-(+)-xylose (X3877), D-(+)-mannose (M8574, Sigma-Aldrich) or D-(+)-glucose (G8270). Optical densities (OD600 nm) of bacterial cultures were measured with a BioTek EPOCH 2 plate reader.

Row | SMILES | severity of colonic GvHD [1] | abundances of BT (intestinal microbiota; day 20, compared to meropenem-treated mice) | compositional differences between luminal and mucosal samples (intestinal microbiota; treated allogeneic mice, PERMANOVA testing) | fecal levels of SCFAs [2] | overall survival ([1]; 0.5% xylose days 13 to 28, meropenem-treated allogeneic mice) | mucolytic activity / mucus-degrading function of BT (colonic mucus layer) | expression of ORF GH2_PUL89_16 [3] | growth of mouse- and human-derived BT [4]
1 | CO/N=C(\C(=O)N[C@@H]1C(=O)N2C(C(=O)[O-])=C(C[N+]3(C)CCCC3)CS[C@H]12)c1csc(N)n1 [cefepime] | do not increase the severity of colonic GvHD | significantly lower abundances of BT | loss of compositional differences | did not show substantially reduced fecal levels of SCFAs |  |  |  | 
2 | C[C@H]1COc2c(N3CCN(C)CC3)c(F)cc3c(=O)c(C(=O)O)cn1c23 [levofloxacin] | do not increase the severity of colonic GvHD |  |  |  |  |  |  | 
3 | O=C[C@H](O)[C@@H](O)[C@H](O)CO [xylose, D-(+)-xylose] |  |  |  |  | significantly improved the survival | suppressed | significantly downregulated | augmented
